Test results: patent publication US12473295B2, “Substituted straight chain spiro derivatives” (Janssen Pharmaceutica NV, priority 2019, dated 2025)
Counter-ions that a name gives are not always drawn.

Key:
[1] = target: hERG potassium channel (Homo sapiens (Human), UniProt Q12809); experiment: Effect on membrane potassium current IKr in hERG transfected CHO cells, Protocol 1 (QPatch); type: cell-based
In short: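 Whole-cell automated patch clamp on CHO cells stably expressing hERG, held at −80 mV; the value is the tail current at −40 mV after a 2 s step to +60 mV, at pH 7.4 bath and pH 7.2 pipette. After 0.3% DMSO control, compound was applied at 3×10^−7 M, 3×10^−6 M, 10^−5 M and 3×10^−5 M, 5 min each. IC50 comes from a non-linear least-squares fit of block versus vehicle.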

[2] = tested on: iCell Cardiomyocytes2; experiment: Ca2+-fluorescence assay in human pluripotent stem cell-derived cardiomyocytes (CTCM human), iCell Cardiomyocytes2; type: cell-based; parameters: key: Green: No concern; Yellow: Low concern; Red: High concern; Black: Very high concern due to arrhythmic events; settings: 30 min
Description: 7) Cardio-Electrophysiological Effects of the Testing Compounds in Synchronously Beating Human Pluripotent Stem Cell-Derived Cardiomyocytes (hSC-CMs) Using a Ca^2+-Fluorescence Assay (CTCM Human)
Compounds were tested in the 96-well plates
Compounds were tested at 0.1 μM, 0.2 μM, 0.5 μM, 1 μM, 2.5 μM and 5 μM (n=4 per dose) on Cor.4U 9-Cardiomyocytes or on iCell® Cardiomyocytes2
Alternatively, compounds were tested at 0.1 μM, 0.3 μM; 1 μM, 3 μM, 10 μM and 30 μM (n=4 per dose) mostly on iCell® Cardiomyocytes2
Dimethylsulfoxide (DMSO). The solutions of the compound in DMSO or its solvent (final concentration of 0.1% DMSO; n=8)
Preparation of Test Article and Controls
Tested compounds were dissolved in DMSO at 1000-fold the intended concentrations. A compound “mother-plate” was made, containing the test compounds and positive and negative controls at 1000-fold the final concentrations. At the experiment day, these stock solutions were diluted with Tyrode (Sigma), supplemented with 10 mM HEPES (Gibco), to 2-fold the intended concentration (in round bottom compound plates). Final DMSO concentration in test solutions and vehicle control was 0.1%.
Second line hSC derived cardiomyocyte called iCell®, Cardiomyocytes2 were purchased from FUJIFILM Cellular Dynamics (USA). The experiments with test drugs are carried out 5 to 7 days after plating the cells onto the plate to have a living, beating monolayer of hiPSC-derived cardiomyocytes. The beating monolayer in 96-well-plates are normally taken from 2 Vials of frozen iCell) Cardiomyocytes2 (≈5 million cells/vial), which will be plated onto […] 96-well plates (≈50K/well).
Before Start of Experiment
At least one hour before the start of the experiments the normal cell medium was replaced with Tyrode solution with Calcium dye (see below).
Cal 520 dye (AAT Bioquest) was dissolved in 11 ml of Tyrode supplemented with 10 mM HEPES and warmed up to 37° C. before adding to the cells.
35 μl cell culture medium was removed from each well and replaced with 35 μl of pre-warmed Cal 520 dye solution and cell plate was incubated for 45 min at 37° C./5% CO2. Cells were incubated for 5 min at 37° C.
Spontaneous electrical activity is recorded, using Cal520™ (AAT Bioquest) calcium fluorescence-dye signaling. This dye integrates the total intracellular calcium activity over the whole well. A bottle of Cal520 dye (50 μg, MW: 1103/mol) is dissolved with 50 μl DMSO as a stock solution of 0.9 mM. 50 μL of the stock solution of the dye was added to 10 ml Tryodes solution to have dye concentration of 4.5 μM. Subsequently, 35 μl of this dye solution was added into each well, to have a final dye concentration of 1.58 μM. The current dye protocol on this CTCM human assay was established recently (Ivan Kopljar et al, Journal of Pharmacological and toxicological methods 2018. 91: 80-86; Lu et al., Tox Sci 2019. 170 (2): 345-356).
Fluorescent signals (Ca^2+ transient morphology) were measured using the Functional Drug Screen System (FDSS/μCell; Hamamatsu, Japan) and the recordings were subsequently analyzed off-line, using appropriate software e.g. Notocord.
The cell plate was loaded into the FDSS/μCell for a test run: Ca^2+ transients were measured for 4 minutes to check for synchronous beating of the cardiomyocytes in each well. All 96 wells were measured simultaneously (sampling interval: 0.06 s, short exposure time: 10 ms; excitation wavelength 480 nm; emission wavelength 540 nm; FDSS/μCell warmed to 37° C.).
During the compound addition step, 100 μl of the respective double-concentrated test solutions was pipetted into each well simultaneously.
Data were analyzed off-line using appropriate software e.g. Notocord-Hem (version 4.3).
The following parameters of the Ca^2′ transient morphology were measured: • beat rate (BR) • amplitude of the Ca^2+ transient (Amp), • CTD90: Ca^2+ transient duration at 90% (time to 90% of the initial base value). […]

Sequence of hERG potassium channel (Q12809 whole entry): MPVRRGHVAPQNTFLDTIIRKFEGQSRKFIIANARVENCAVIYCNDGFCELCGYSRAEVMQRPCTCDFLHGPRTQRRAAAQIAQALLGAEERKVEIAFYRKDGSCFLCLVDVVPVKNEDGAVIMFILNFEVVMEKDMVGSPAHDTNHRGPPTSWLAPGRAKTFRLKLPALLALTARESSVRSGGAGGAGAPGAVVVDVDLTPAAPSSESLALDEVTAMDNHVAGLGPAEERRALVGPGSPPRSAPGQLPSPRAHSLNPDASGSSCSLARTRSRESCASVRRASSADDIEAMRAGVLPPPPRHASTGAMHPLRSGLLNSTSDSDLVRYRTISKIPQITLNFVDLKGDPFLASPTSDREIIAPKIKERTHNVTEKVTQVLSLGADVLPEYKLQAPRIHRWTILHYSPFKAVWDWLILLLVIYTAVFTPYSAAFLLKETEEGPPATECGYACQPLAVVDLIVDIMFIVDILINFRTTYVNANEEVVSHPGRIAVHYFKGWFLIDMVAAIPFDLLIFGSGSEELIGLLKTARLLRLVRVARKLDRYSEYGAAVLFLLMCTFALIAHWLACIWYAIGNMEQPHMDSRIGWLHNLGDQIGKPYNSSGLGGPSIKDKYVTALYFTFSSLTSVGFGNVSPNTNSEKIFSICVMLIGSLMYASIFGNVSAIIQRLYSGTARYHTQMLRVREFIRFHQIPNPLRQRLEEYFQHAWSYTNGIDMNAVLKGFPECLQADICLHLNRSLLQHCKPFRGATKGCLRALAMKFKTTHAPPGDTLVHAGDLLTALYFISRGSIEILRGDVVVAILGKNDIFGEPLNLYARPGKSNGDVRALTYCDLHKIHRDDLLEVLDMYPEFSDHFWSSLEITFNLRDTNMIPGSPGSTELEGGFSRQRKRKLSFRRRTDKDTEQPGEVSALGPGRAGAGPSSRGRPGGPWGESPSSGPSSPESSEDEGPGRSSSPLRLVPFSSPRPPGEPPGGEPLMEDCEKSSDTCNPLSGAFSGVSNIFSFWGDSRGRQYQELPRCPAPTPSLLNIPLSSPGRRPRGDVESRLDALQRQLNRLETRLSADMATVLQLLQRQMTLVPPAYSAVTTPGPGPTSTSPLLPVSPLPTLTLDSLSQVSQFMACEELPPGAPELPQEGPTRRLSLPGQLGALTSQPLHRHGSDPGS

| Structure (SMILES) | IC50 [1] [µM] | Color @ 0.1 μM (hazard score) ([2]; iCell Cardiomyocytes2, 0.1 μM) | Color @ 0.2 μM (hazard score) ([2]; iCell Cardiomyocytes2, 0.2 μM) | Color @ 0.5 μM (hazard score) ([2]; iCell Cardiomyocytes2, 0.5 μM) | Color @ 1 μM (hazard score) ([2]; iCell Cardiomyocytes2, 1 μM) | Color @ 2.5 μM (hazard score) ([2]; iCell Cardiomyocytes2, 2.5 μM) | Color @ 5 μM (hazard score) ([2]; iCell Cardiomyocytes2, 5 μM) |
| --- | --- | --- | --- | --- | --- | --- | --- |
| CCN(C(=O)c1cc(F)ccc1Oc1nncnc1N1CCC2(C1)CN([C@H](CCCN)C(C)C)C2)C(C)C [Compound 1, (R)-2-((5-(2-(6-amino-2-methylhexan-3-yl)-2,6-diazaspiro[3.4]octan-6-yl)-1,2,4-triazin-6-yl)oxy)-N-ethyl-5-fluoro-N-isopropylbenzamide formate] | > 30.2 |  |  |  |  |  |  |
| CCN(C(=O)c1cc(F)ccc1Oc1nncnc1N1CCC2(C1)CN([C@H](CCCN(C)CCC(=O)N(C)C)C(C)C)C2)C(C)C [Compound 246, (R)-2-((5-(2-(6-((3-(dimethylamino)-3-oxopropyl)(methyl)amino)-2-methylhexan-3-yl)-2,6-diazaspiro[3.4]octan-6-yl)-1,2,4-triazin-6-yl)oxy)-N-ethyl-5-fluoro-N-isopropylbenzamide formate] |  | Green | Green | Green | Green | Green | Green |
| CC(C)[C@@H](CCC(C)(C)N)N1CC2(CCN(c3ncnnc3Oc3ccc(F)cc3-c3cncnc3C3CC3)C2)C1 (single isomer, unassigned) [Compound 37, (*R)-5-(6-(6-(2-(4-cyclopropylpyrimidin-5-yl)-4-fluorophenoxy)-1,2,4-triazin-5-yl)-2,6-diazaspiro[3.4]octan-2-yl)-2,6-dimethylheptan-2-amine] | > 30.2 |  |  |  |  |  |  |
